From the NIST ThermoML archive (doi:10.1021/je025629r)
± gives the expanded uncertainty stated by the source.

Conditions: 298.2 K; 101.33 kPa; Liquid; vibrating tube

mass density | Structure (SMILES)
784.93 ± 0.42 kg/m3 | CCO [ethanol]
682.3 ± 0.4 kg/m3 | CCCCCCC [heptane]
746.6 ± 0.4 kg/m3 | CCCCCCCCCCCC [dodecane]
770.3 ± 0.4 kg/m3 | CCCCCCCCCCCCCCCC [hexadecane]
786.27 ± 0.42 kg/m3 | CO [methanol]
1010.4 ± 1 kg/m3 | CCCCCCCC[n+]1ccn(C)c1.[Cl-] [1-methyl-3-octylimidazolium chloride]
